From patent US9506031B2, “Methods and materials for increasing potency of cells” (University of Central Florida Research Foundation, Inc., priority 2004, dated 2016)

System: human mesenchymal stem cells (MeSCs)
Assay: Cardiac differentiation of human MeSCs in co-culture with cardiomyocytes (H9c2), RT-PCR with cardiac specific primers
Type: cell-based
Conditions: BrdU and/or 5-azaC 1-10 uM for 3 weeks, or nanog vector transfection; then co-culture with cardiomyocytes
From the text: Cardiac differentiation of human mesenchymal stem cells (MeSCs) is achieved through treatment with nucleotide derivatives BrdU and 5-azaC and/or forced expression of embryonic stem cell gene nanog. Following treatment, cells were placed in a co-culture with cardiac cells (cardiomyocyte cell line H9c2). Human MeSCs plated in 6-well culture plates and expanded in serum-DMEM (Delbecco's Modified Eagle's Medium) containing 10% MeSC formulated fetal bovine serum (FBS, Stem Cell, Inc) containing antibiotics/antimycotics. MeSCs were treated with varying concentrations (1-10 uM) of BrdU and/or 5-azaC for 3 weeks or transfected with mammalian expression vector containing a nanog encoding sequence. Cell media was changed every three days prior to co-culture with cardiomyocytes. Cardiomyocytes were expanded and grown to near confluence in serum-DMEM with 10% non-conditioned FBS and antibiotics/antimycotics. To differentiate cardiac cells, serum media was replaced with plain DMEM containing only antibiotics and allowed to differentiate. Co-cultures were created by combining MeSCs with cardiac cells and culturing in cardiac media. Following co-culture, cells were treated with TRIzol and gene expression was assessed using RT-PCR and cardiac specific primers. […]

Row | SMILES | expression of cardiac specific genes (RT-PCR, gel electrophoresis)
1 | Nc1ncn([C@@H]2O[C@H](CO)[C@@H](O)[C@H]2O)c(=O)n1 [5-azaC] | expression of cardiac specific genes
2 | O=c1[nH]c(=O)n([C@H]2C[C@H](O)[C@@H](CO)O2)cc1Br [BrdU] | expression of cardiac specific genes
